As a reminder, the IC50 is the concentration at which inhibition is half-maximal. Low values mean inhibition by little substance, high ones a need for much substance.

These results are taken from US20210188775A1, “CARBOXAMIDE AND SULFONAMIDE DERIVATIVES USEFUL AS TEAD MODULATORS” (Genentech, Inc., priority 2018, published 2021).

The target in one assay is TEAD2 (Homo sapiens, UniProt Q15562). The experiment in a line: TEAD lipid assay (Lipid FP, Bodipy-C16 probe displacement). It counts as binding. The settings on record: fluorescence polarization, His-tagged TEAD, 60 minutes incubation. The method, then:
(§1) A TEAD lipid assay was done according to the following method. His-tagged TEAD proteins were pre-incubated with a Bodipy-C16 FP probe (Life Technologies Cat #D3821) for 30 minutes at room temperature to pre-form TEAD-probe complex. […] Duplicate 10 point dose response curves were generated for each test compound. The potency of compounds as TEAD lipid pocket binders was determined by IC50 value generated using a non-linear 4 parameter curve fit.
For orientation: Polarisation of emitted light reports the rotation of a fluorescent probe.

The target of a further assay is TEAD3 (Homo sapiens, UniProt Q99594). The description is as above. Conditions: fluorescence polarization, His-tagged TEAD, 60 minutes incubation. It counts as binding. The method, then: as §1
TEAD3, sequence (Q99594 whole entry, species assumed): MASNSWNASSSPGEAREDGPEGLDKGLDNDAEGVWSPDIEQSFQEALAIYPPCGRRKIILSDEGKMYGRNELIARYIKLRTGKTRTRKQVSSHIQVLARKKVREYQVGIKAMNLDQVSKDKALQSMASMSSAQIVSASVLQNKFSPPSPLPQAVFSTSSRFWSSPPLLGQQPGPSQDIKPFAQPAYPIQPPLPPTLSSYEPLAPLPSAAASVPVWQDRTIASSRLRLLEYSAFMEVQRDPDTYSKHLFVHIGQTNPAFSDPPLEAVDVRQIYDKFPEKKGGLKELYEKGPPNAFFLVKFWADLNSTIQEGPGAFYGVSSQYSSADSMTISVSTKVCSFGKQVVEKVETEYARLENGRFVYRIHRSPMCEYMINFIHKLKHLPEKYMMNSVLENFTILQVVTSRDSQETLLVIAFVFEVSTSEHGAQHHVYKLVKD

TEAD2, sequence (Q15562 whole entry, species assumed): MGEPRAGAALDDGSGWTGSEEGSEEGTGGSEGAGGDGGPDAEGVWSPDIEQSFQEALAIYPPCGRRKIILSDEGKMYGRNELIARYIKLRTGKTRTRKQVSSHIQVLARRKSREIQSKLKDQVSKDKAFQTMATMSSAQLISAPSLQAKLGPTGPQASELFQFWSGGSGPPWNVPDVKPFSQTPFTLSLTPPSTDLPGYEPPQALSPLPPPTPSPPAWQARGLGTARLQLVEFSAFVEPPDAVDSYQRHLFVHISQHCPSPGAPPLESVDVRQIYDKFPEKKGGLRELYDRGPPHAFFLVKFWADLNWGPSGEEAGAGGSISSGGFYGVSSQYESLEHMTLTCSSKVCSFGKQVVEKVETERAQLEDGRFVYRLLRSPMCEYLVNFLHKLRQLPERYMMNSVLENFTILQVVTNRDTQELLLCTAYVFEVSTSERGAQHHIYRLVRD

Regarding `COc1ncc(NS(C)(=O)=O)cc1C1CC(c2ccc(Cl)cc2)C1` (centres unmarked) [Compound 13, N-[5-[3-(4-chlorophenyl)cyclobutyl]-6-methoxy-3-pyridyl]methanesulfonamide], the values for the IC50 at TEAD2 and at TEAD3 were 730 nM and 1800 nM, respectively.
For `COc1ncc(NS(=O)(=O)CC(C)(C)C#N)cc1/C=C/C1CCC(F)(F)CC1` [Compound 50, 2-cyano-N-[5-[(E)-2-(4,4-difluorocyclohexyl)vinyl]-6-methoxy-3-pyridyl]-2-methyl-propane-1-sulfonamide] the same measures were 1300 nM and 1100 nM.
For `COc1ccc(NS(C)(=O)=O)cc1C1CC1C1CCCCC1` (single isomer, unassigned) [Compound 1B, N-(3-(2-Cyclohexylcyclopropyl)-4-methoxyphenyl)methanesulfonamide] the same measures were 1000 nM and 1800 nM.
`Cc1cn(Cc2ccc(Cl)cc2)c2cc(NS(C)(=O)=O)ccc12` [Compound 22, N-[1-[(4-chlorophenyl)methyl]-3-methyl-indol-6-yl]methanesulfonamide]: the IC50 turned out to be 930 nM on TEAD2 and 1300 nM on TEAD3.
On to `COc1ccc(NS(=O)(=O)C2CC2)cc1/C=C/c1ccc(Cl)cc1` [Compound 49, N-[3-[(E)-2-(4-chlorophenyl)vinyl]-4-methoxy-phenyl]cyclopropanesulfonamide], for which the IC50 at TEAD2 was 750 nM; at TEAD3, 1900 nM.
For `COc1ccc(NS(C)(=O)=O)cc1/C=C/C1CCCCC1` [Compound 27, N-[3-[(E)-2-cyclohexylvinyl]-4-methoxy-phenyl]methanesulfonamide] the same measures were 1000 nM and 1200 nM.
`COc1ccc(NS(=O)(=O)C2CC2)cc1/C=C/Cc1ccccc1` [Compound 33, N-[4-methoxy-3-[(E)-3-phenylprop-1-enyl]phenyl]cyclopropanesulfonamide]: the figures for the IC50 at TEAD2 and on TEAD3 were 840 nM and 1200 nM, respectively.
Regarding `CS(=O)(=O)Nc1cnc(C2CC2)c(/C=C/C2CCC(F)(F)CC2)c1` [Compound 52, N-[6-cyclopropyl-5-[(E)-2-(4,4-difluorocyclohexyl)vinyl]-3-pyridyl]methanesulfonamide], the IC50 is 1600 nM on TEAD2 and 13000 nM on TEAD3.
Take `COc1ccc(NS(=O)(=O)C2CC2)cc1-c1ccc(C(C)C)cc1` [Compound 25, N-[3-(4-isopropylphenyl)-4-methoxy-phenyl]cyclopropanesulfonamide]: the 50% inhibitory concentration (IC50) on TEAD2 was 380 nM; on TEAD3 it was 1200 nM.
Turning to `CCOc1ncc(NS(C)(=O)=O)cc1/C=C/C1CCC(F)(F)CC1` [Compound 18, N-[5-[(E)-2-(4,4-difluorocyclohexyl)vinyl]-6-ethoxy-3-pyridyl]methanesulfonamide], the IC50 on TEAD2 stood at 1900 nM; at TEAD3 it was 1200 nM.
As to `CC[C@H](CO)NC(=O)c1cc(/C=C/[C@H]2CC[C@H](C(F)(F)F)CC2)c(OC)nn1` [Compound 46, (E)-N-(1-hydroxybutan-2-yl)-6-methoxy-5-(2-(4-(trifluoromethyl)cyclohexyl)vinyl) pyridazine-3-carboxamide], the 50% inhibitory concentration (IC50) on TEAD2 and at TEAD3 was 1600 nM in each case.
For the compound `Cc1cn(Cc2ccc(Cl)cc2)c2cc(NS(=O)(=O)C3CC3)ccc12` [Compound 23, N-[1-[(4-chlorophenyl)methyl]-3-methyl-indol-6-yl]cyclopropanesulfonamide], the figures for the IC50 at TEAD2 and on TEAD3 were 1200 nM and 830 nM, respectively.
Taken in the same sequence, the figures for `COc1cnc(NS(C)(=O)=O)cc1/C=C/C1CCC(C(F)(F)F)CC1` (centres unmarked) [Compound 48, (E)-N-(5-methoxy-4-(2-(4-(trifluoromethyl)cyclohexyl)vinyl)pyridin-2-yl)methanesulfonamide] were 1100 nM and 1600 nM.
In the case of `COc1ncc(NS(C)(=O)=O)cc1/C=C/C1CC(C)(C)C1` [Compound 36, N-[5-[(E)-2-(3,3-dimethylcyclobutyl)vinyl]-6-methoxy-3-pyridyl]methanesulfonamide], the IC50 was found to be 950 nM at TEAD2 and 1400 nM on TEAD3.
On to `COc1ccc(NS(C)(=O)=O)cc1/C=C/CC1CCCCC1` [Compound 4, N-[3-[(E)-3-cyclohexylprop-1-enyl]-4-methoxy-phenyl]methanesulfonamide], for which the IC50 at TEAD2 was determined as 960 nM; at TEAD3, 1300 nM.
Taken in the same sequence, the figures for `COc1ccc(C(=O)NC(C)CCO)cc1/C=C/c1ccc(Cl)cc1` (single isomer, unassigned) [Compound 51, 3-[(E)-2-(4-chlorophenyl)vinyl]-N-(3-hydroxy-1-methyl-propyl)-4-methoxy-benzamide] were 960 nM and 2000 nM.
Taken in the same sequence, the figures for `COc1ncc(NS(C)(=O)=O)cc1/C=C/C1CC2(CC2)C1` [Compound 17, N-[6-methoxy-5-[(E)-2-spiro[2.3]hexan-5-ylvinyl]-3-pyridyl]methanesulfonamide] were 810 nM and 1800 nM.
`C=CS(=O)(=O)Nc1ccc(OC)c(/C=C/c2ccc(Cl)cc2)c1` [Compound 34, N-[3-[(E)-2-(4-chlorophenyl)vinyl]-4-methoxy-phenyl]ethenesulfonamide]: the half-inhibitory concentration (IC50) came out at 960 nM at TEAD2 and 1200 nM on TEAD3.
Taken in the same sequence, the figures for `CC[C@H](CO)NC(=O)c1cc(/C=C/[C@H]2CC[C@H](C(F)(F)F)CC2)c(OC)cn1` [Compound 42, (E)-N-(1-hydroxybutan-2-yl)-5-methoxy-4-(2-(4-(trifluoromethyl)cyclohexyl)vinyl) picolinamide] were 530 nM and 780 nM.
Regarding `COc1ccc(NS(C)(=O)=O)cc1/C=C/C1CCC(F)(F)CC1` [Compound 2, N-[3-[(E)-2-(4,4-difluorocyclohexyl)vinyl]-4-methoxy-phenyl]methanesulfonamide], the IC50 on TEAD2 was found to be 1000 nM; on TEAD3 it was 1500 nM.
Taken in the same sequence, the figures for `COc1ccc(NS(C)(=O)=O)cc1[C@H]1C[C@H](c2ccc(Cl)cc2)C1` (single isomer, unassigned) [Compound 7A] were 910 nM and 1700 nM.
Regarding `COc1ccc(NS(C)(=O)=O)cc1/C=C/C1CCC(C)CC1` (single isomer, unassigned) [Compound 6A, (E)-N-(4-Methoxy-3-(2-(4-methylcyclohexyl)vinyl)phenyl) methanesulfonamide], the IC50 stood at 960 nM on TEAD2 and 1700 nM on TEAD3.
For `COc1ccc(C(=O)NC(C)C)cc1/C=C/C1CCCCC1` [Compound 29] the same measures were 1000 nM and 1100 nM.
Taken in the same sequence, the figures for `CC[C@H](CO)NC(=O)c1cc(/C=C/C2CC3(CC3)C2)c(OC)cn1` [Compound 44, (E)-N-(1-hydroxybutan-2-yl)-5-methoxy-4-(2-(spiro[2.3]hexan-5-yl)vinyl)picolinamide] were 830 nM and 700 nM.
For `COc1ccc(C(=O)NC(C)C)cc1[C@H]1C[C@H](c2ccc(Cl)cc2)C1` (single isomer, unassigned) [Compound 9A] the same measures were 780 nM and 1600 nM.
Turning to `COc1ccc(C(=O)NC(C)C)cc1-c1ccc(C2CC2)cc1` [Compound 26, 3-(4-cyclopropylphenyl)-N-isopropyl-4-methoxy-benzamide], the IC50 on TEAD2 is 2000 nM; at TEAD3 it was 1700 nM.
For `COc1cnc(NS(C)(=O)=O)cc1/C=C/C1(F)CCC(C(F)(F)F)CC1` (centres unmarked) [Compound 21, N-[4-[(E)-2-[1-fluoro-4-(trifluoromethyl)cyclohexyl]vinyl]-5-methoxy-2-pyridyl]methanesulfonamide] the same measures were 860 nM and 630 nM.
For `COc1ncc(NS(C)(=O)=O)cc1/C=C/C1CC(C(F)(F)F)C1` (racemic) [Compound 37, N-[6-methoxy-5-[rac-(E)-2-[3-(trifluoromethyl)cyclobutyl]vinyl]-3-pyridyl]methanesulfonamide] the same measures were 750 nM and 1300 nM.
Taken in the same sequence, the figures for `COc1cc(F)c(NS(=O)(=O)C2CC2)cc1-c1ccc(C(C)C)cc1` [Compound 11, N-[2-fluoro-5-(4-isopropylphenyl)-4-methoxy-phenyl]cyclopropanesulfonamide] were 560 nM and 630 nM.
On to `COc1cnc(C(=O)NC[C@H](O)CO)cc1/C=C/C1CC2(CC2)C1` [Compound 43, (E)-N-(2,3-dihydroxypropyl)-5-methoxy-4-(2-(spiro[2.3]hexan-5-yl)vinyl)picolinamide], for which the IC50 came to 980 nM at TEAD2 and 1700 nM on TEAD3.
Turning to `COc1ncc(NS(C)(=O)=O)cc1/C=C/[C@H]1CC[C@H](C(F)(F)F)CC1` [Compound 16, N-[6-methoxy-5-[(E)-2-[4-(trifluoromethyl)cyclohexyl]vinyl]-3-pyridyl]methanesulfonamide], the IC50 at TEAD2 worked out at 690 nM; at TEAD3, 1200 nM.
For `CC[C@H](CO)NC(=O)c1cnc(OC)c(/C=C/C2CCC(F)(F)CC2)c1` (racemic) [Compound 35, 6-methoxy-5-[rac-(E)-2-(4,4-difluorocyclohexyl)vinyl]-N-[rac-(1R)-1-(hydroxymethyl)propyl]pyridine-3-carboxamide] the same measures were 1900 nM and 1400 nM.
For `CC[C@H](CO)NC(=O)c1cc(/C=C/C2CCC(F)(F)CC2)c(OC)cn1` (racemic) [Compound 41, 5-methoxy-4-[rac-(E)-2-(4,4-difluorocyclohexyl)vinyl]-N-[rac-(1R)-1-(hydroxymethyl)propyl]pyridine-2-carboxamide] the same measures were 1800 nM and 1100 nM.
In the case of `Cn1cc(Cc2ccc(Cl)cc2)c2cc(NS(C)(=O)=O)ccc21` [Compound 24, N-[3-[(4-chlorophenyl)methyl]-1-methyl-indol-5-yl]methanesulfonamide], the concentration for half-maximal inhibition (IC50) turned out to be 360 nM at TEAD2 and 780 nM on TEAD3.
